What was measured:
[1] = Example 1: percutaneous [3H]-4-hydroxy tamoxifen delivery, radioactivity in breast tissue and blood of breast cancer patients; type: in vivo, human
Method: The patients received [^3H]-labeled drug applied directly on the affected breasts at specified intervals ranging from 12 hours to 7 days before surgery to excise diseased tissue. Breast tissue from three regions: the tumor, tissue immediately surrounding the tumor, and normal tissue, was excised and immediately frozen in liquid nitrogen. Additionally, plasma and urine samples were obtained at scheduled intervals and frozen until analysis.

estrogen receptors = settings: in vitro; cited from earlier work
[2] = Example 4: 4-OHT assay in plasma, tumor tissue and normal tissue (GC-MS NICI); type: in vivo, human; settings: 2-3 weeks
From the text: Patients were scheduled for tumor resection surgery with curative intent between day 15 and day 22 after the start of treatment. On the day prior to surgery, a blood sample was also obtained for determination of 4-OHT concentrations. On the day of surgery, patients were reassessed for concomitant therapy, concomitant conditions, hematology, biochemistry, plasma 4-OHT, estrone (E1), and estradiol (E2) concentrations.
Concentrations of 4-OHT in plasma, tumor tissue, and normal tissue were performed using Gas Chromatography (GC) combined with Mass Spectrometry (MS) used in the Negative Ion Chemical Ionization-mode (NICI) (Girault, 1993). The quantification limits of the method were 5 pg/ml for the plasma and 50 pg/g for tissue samples respectively. Tumor extracts and normal breast tissue obtained at the time of surgery (after treatment) were stored in liquid nitrogen until subsequent assay of 4-OHT.

[3] = Example 3: plasma pharmacokinetics of 4-hydroxy tamoxifen gel in healthy premenopausal women; type: in vivo, human; settings: for t1/2 (Range): 57 mg/100 g gel, last administration
Method: Each participant applied the gel daily for the duration of two menstrual cycles.
At the end of a menstrual cycle, each patient received a single dose, after which serial blood samples were collected at 0, 0.5, 1, 1.5, 2, 3, 4, 6, 12, 18, 24, 36, 48, and 72 hours.
On the first day of the following menstruation, treatment, which consisted of daily application of the gel over two menstrual cycles, began. Blood samples were collected 24 hours following the morning application of gel on days 7, 20 and 25 of the first and second cycles. On the last day of administration, day 25 of the second menstrual cycle, serial blood samples were collected prior to application and at 0.5, 1, 1.5, 2, 3, 4, 6, 12, 18, 24, 36, 48, and 72 hours after application of the gel.

estrone sulphatase = molecular target: T1, estrone sulphatase (Homo sapiens, UniProt P08842); settings: mammary cancer cell lines; cited from earlier work
T1 construct: estrone sulphatase activity in mammary cancer cell lines
T1 sequence (P08842 22-583): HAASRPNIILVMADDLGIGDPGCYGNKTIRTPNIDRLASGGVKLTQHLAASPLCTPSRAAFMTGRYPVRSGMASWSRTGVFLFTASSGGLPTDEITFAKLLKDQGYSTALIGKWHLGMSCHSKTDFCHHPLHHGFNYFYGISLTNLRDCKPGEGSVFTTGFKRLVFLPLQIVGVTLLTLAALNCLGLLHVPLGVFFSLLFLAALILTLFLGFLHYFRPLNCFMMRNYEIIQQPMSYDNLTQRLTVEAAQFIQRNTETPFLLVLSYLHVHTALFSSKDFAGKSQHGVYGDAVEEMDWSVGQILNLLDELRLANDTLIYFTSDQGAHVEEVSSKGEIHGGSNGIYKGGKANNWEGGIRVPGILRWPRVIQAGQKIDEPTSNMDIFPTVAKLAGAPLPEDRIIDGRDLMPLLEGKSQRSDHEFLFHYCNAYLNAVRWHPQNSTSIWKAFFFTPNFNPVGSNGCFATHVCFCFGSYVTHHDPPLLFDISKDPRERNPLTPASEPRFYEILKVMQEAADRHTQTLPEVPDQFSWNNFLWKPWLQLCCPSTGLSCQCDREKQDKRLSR

[4] = system: Ki67 antigen (tumor tissue proliferation index); assay: Example 4: Ki67 labeling index in breast tumor tissue; type: in vivo, human; settings: for mean Ki-67 LI scores after treatment compared to the untreated group: adjusted for baseline, P=0.0054
From the text: Participants in the study were postmenopausal women diagnosed with estrogen receptor positive invasive breast cancer, as determined by Trucut biopsy. Criteria for enrollment included age >50 years, histologically confirmed T1 or T2 estrogen receptor positive primary breast cancer, and fit for surgery within 1 month of the biopsy. Patients with inflammatory cancer, known metastasis or lymph node involvement were excluded as were patients with previous radiotherapy or chemotherapy and ongoing hormone replacement therapy (a minimum washout period of 8 days was observed before the Tru-cut biopsy). Other exclusion criteria were a history of thrombophlebitis requiring anticoagulant treatment, retinopathy, cutaneous allergy to alcohol or mammary dermatitis contraindicating the application of a gel.
Patients were scheduled for tumor resection surgery with curative intent between day 15 and day 22 after the start of treatment. On the day prior to surgery, a blood sample was also obtained for determination of 4-OHT concentrations. […]
Ki67 and Proliferating Cell Nuclear Antigen (PCNA) labeling indices (LI) were assessed on paraffin embedded sections of the pre- and post-treatment tissue specimens. The Ki67 antigen was assessed using the monoclonal antibody MIB 1 (DAKO, Denmark) as used in routine conditions in pathology. […] Six serial sections were analyzed per case in order to standardize sampling. […] For each preparation, optical density (OD) thresholds were determined using real microscopic images of the analyzed field as reference. […] Twenty fields were analyzed for each section. Stained nuclear surface was determined (segmentation and thresholding) and a LI scored (stained cells/counterstained elements). […] Control of immunostaining quantitative analysis and reproducibility of the procedure were performed: —by comparison to iterative measurements done on the same preparations, —by comparison to measurements compiled on six sequential sections of the same specimen. […] Results were expressed as LI.

[5] = system: p53(−) normal human mammary epithelial cells; settings: cited from earlier work
[6] = cited from earlier work
[7] = 12 hr after percutaneous Z-[3H]-4-hydroxy tamoxifen
[8] = 24 hours after percutaneous [3H]-4-hydroxy tamoxifen
[9] = 24 hr after percutaneous Z-[3H]-4-hydroxy tamoxifen
[10] = 36 hr after percutaneous Z-[3H]-4-hydroxy tamoxifen
[11] = Day 4 after percutaneous Z-[3H]-4-hydroxy tamoxifen
[12] = Day 7 after percutaneous Z-[3H]-4-hydroxy tamoxifen

| % Metabolites in Breast Tissue [1, 11] | % Metabolites in Breast Tissue [1, 12] | SMILES | % Metabolites in Breast Tissue ([1]; human, in vivo) | effect on estrone sulphatase activity (estrone sulphatase) | mean Ki-67 LI scores after treatment compared to the untreated group [4] | % Metabolites in Breast Tissue [1, 7] | % of radioactivity in blood [1, 8] | % Metabolites in Breast Tissue [1, 9] | % Metabolites in Breast Tissue [1, 10] | further results |
| --- | --- | --- | --- | --- | --- | --- | --- | --- | --- | --- |
|  |  | CCC(=C(c1ccc(O)cc1)c1ccc(OCCN(C)C)cc1)c1ccccc1 (single isomer, unassigned) [E isomer] | 33% |  |  |  |  |  |  |  |
|  |  | CCC(=C(c1ccc(O)cc1)c1ccc(OCCN(C)C)cc1)c1ccccc1 [4-hydroxy tamoxifen, 1-[4-(2-N-dimethylaminoethoxy)phenyl]-1-(4-hydroxyphenyl)-2-phenylbut-1-ene] |  | significant inhibitory effect | significantly lower |  |  |  |  | potency as measured by binding affinity to estrogen receptors, compared with tamoxifen (estrogen receptors): more potency than tamoxifen; 4-OHT concentration in Tumor, Median (min:max) ([2]; gel 0.5 mg/d): 687 pg/g; 4-OHT concentration in Tumor, Median (min:max) ([2]; gel 1.0 mg/d): 1377 pg/g; 4-OHT concentration in Tumor, Median (min:max) ([2]; gel 2.0 mg/d): 1698 pg/g; % of radioactivity in blood ([1]; human, in vivo): 68%; radioactivity administered that showed in the blood ([1]; human, in vivo): 0.5%; retention in the breast ([1]; human, in vivo): approximately 4 days; time of plateau of radioactivity in blood ([1]; human, in vivo): 4 to 6 days; t1/2 (Range) ([3]; 1 mg/day): (58-118) hr; t1/2 (Range) ([3]; 2 mg/day): (49-101) hr; plasma concentrations after the last gel application ([3]; 72 hours after the last gel application): remained detectable; plasma concentrations of 4-hydroxy tamoxifen after a single dose ([3]; single 0.5 mg dose): did not produce detectable plasma concentrations; patients with detectable plasma concentrations (>5 pg/mL) ([3]; single dose of 1 mg): 6 of 12; plasma concentrations of 4-hydroxy tamoxifen versus typical estradiol concentrations ([3]; topical application, 0.5-2 mg/day): < 0.08 ng/mL; dose dependence of mean Ki-67 LI score after treatment ([4]; 0.5, 1.0, 2.0 mg/d): dose-dependent |
| 20% | 16% | CCC(=C(c1ccc(O)cc1)c1ccc(OCCNC)cc1)c1ccccc1 [N-Desmethyl-4-Hydroxy Tamoxifen] |  |  |  | 2% | 18% | 4% | 14% |  |
|  |  | CC/C(=C(\c1ccc(O)cc1)c1ccc(OCCN(C)C)cc1)c1ccccc1 [Z-4-hydroxy tamoxifen] | 32% |  |  |  |  |  |  |  |
| <1% | 2% | CC/C(=C(\c1ccccc1)c1ccc(OCCN(C)C)cc1)c1ccccc1 [tamoxifen, reference compound] |  | little or no effect | significantly lower |  |  |  |  | time of plateau of radioactivity in blood ([1]; percutaneous application): 2 days; retention in the breast ([1]; percutaneous application to the affected breast): shorter and far weaker; initiation of apoptosis [5]: initiates apoptosis; rat liver carcinogenicity [6]: potent rat liver carcinogen |

| SMILES | % Metabolites in Breast Tissue [1, 11] | % Metabolites in Breast Tissue [1, 12] | % Metabolites in Breast Tissue ([1]; human, in vivo) | effect on estrone sulphatase activity (estrone sulphatase) | mean Ki-67 LI scores after treatment compared to the untreated group [4] | % Metabolites in Breast Tissue [1, 7] | % of radioactivity in blood [1, 8] | % Metabolites in Breast Tissue [1, 9] | % Metabolites in Breast Tissue [1, 10] | further results |
| --- | --- | --- | --- | --- | --- | --- | --- | --- | --- | --- |
| CCC(=C(c1ccc(O)cc1)c1ccc(O)cc1)c1ccccc1 [Bisphenol] | 8% | 8% |  |  |  | 1% | 11% | 2% | 3% |  |

Source: US8475814B2 (priority 2003, dated 2013)
